Test system: human mammary cancer-derived KPL-4 cells
Assay: Cell growth inhibition test with KPL-4 cells (WST-1)
Assay type: cell-based
Conditions: KPL4, 72 hours, read-out: 50% growth inhibition concentration (GI50)
Experimental: In a 96-well plate (Nunc), human mammary cancer-derived KPL-4 cells were sown in an amount of 2000 cells/well, and pre-incubated in 10% fetal calf serum (FCS)-containing Dulbecco Modified Eagle Medium (DMEM) (incubation medium) in a 5% carbon dioxide incubator at 37° C. for 24 hours. A dimethylsulfoxide (DMSO) solution of a test compound controlled at 10 mmol/L was stepwise diluted with the incubation medium, and added to each well in a total amount of 100 μL/well, and incubated in the 5% carbon dioxide incubator at 37° C. for 72 hours. After the incubation, WST-1 {4-[3-(4-Iodophenyl)-2-(4-nitrophenyl)-2H-5-tetrazolio]-1,3-benzene disulfonate}-labeled mixture (Rosh Diagnostic) diluted 2-fold with the incubation medium was added thereto in an amount of 20 μL/well, and incubated in the 5% carbon dioxide incubator at 37° C. for 1 hour. Using a microplate spectrophotometer (Biorad's Model 550), the absorbance at 450 nm and 655 nm of each well was measured. The cell growth inhibition activity of the test compound was indicated by the 50% growth inhibition concentration (GI50) thereof. A method of calculating GI50 is described. The absorbance at 655 nm of each well was subtracted from the absorbance at 450 nm thereof to give a value (absorbance difference). The absorbance difference obtained with the cells without being treated with the test compound was taken as 100%, and this was compared with the absorbance difference obtained with the cells treated with the test compound to give the concentration of the compound for 50% cell growth inhibition, and this is referred to as GI50.

| Compound | GI50 [µM] |
| --- | --- |
| CCCc1c(O)cc(O)c(-c2ccccc2)c1CCOC [Compound 95, 5-(2-Methoxyethyl)-4-phenyl-6-propylbenzene-1,3-diol] | ≤ 50 |
| COCCc1c(CC(C)C)c(O)cc(O)c1-c1ccccc1 [Compound 96, 6-Isobutyl-5-(2-methoxyethyl)-4-phenylbenzene-1,3-diol] | ≤ 50 |
| COCCCc1c(Br)c(O)cc(O)c1-c1ccccc1 [Compound 97, 6-Bromo-5-(3-methoxypropyl)-4-phenylbenzene-1,3-diol] | ≤ 50 |
| CNCCc1c(Br)c(O)cc(O)c1-c1ccccc1 [Compound 98, 6-Bromo-5-[2-(N-methylamino)ethyl]-4-phenylbenzene-1,3-diol] | ≤ 50 |
| CN(C)CCc1c(Br)c(O)cc(O)c1-c1ccccc1 [Compound 99, 6-Bromo-5-[2-(N,N-dimethylamino)ethyl]-4-phenylbenzene-1,3-diol] | ≤ 50 |
| COCCNCCc1c(Br)c(O)cc(O)c1-c1ccccc1 [Compound 100, 6-Bromo-5-{2-[N-(2-methoxyethyl)amino]ethyl}-4-phenylbenzene-1,3-diol] | ≤ 50 |
| COCCNCc1c(Br)c(O)cc(O)c1-c1ccccc1 [Compound 103, 6-Bromo-5-[N-(2-methoxyethyl)aminomethyl]-4-phenylbenzene-1,3-diol] | ≤ 50 |
| COCCc1c(Br)c(O)cc(O)c1-c1cccc(OC)c1 [Compound 105, 6-Bromo-5-(2-methoxyethyl)-4-(3-methoxyphenyl)benzene-1,3-diol] | ≤ 50 |
| COc1cccc(-c2c(O)cc(O)c(Br)c2CC(C)=NO)c1 [Compound 107, 6-Bromo-5-[2-(hydroxyimino)propyl]-4-(3-methoxyphenyl)benzene-1,3-diol] | ≤ 50 |
| Oc1cc(O)c(-c2ccccc2)c(CCOCC2CCCO2)c1Br (stereo not drawn) [Compound 109, 6-Bromo-5-[2-(oxolan-2-ylmethoxy)ethyl]-4-phenylbenzene-1,3-diol] | ≤ 50 |
| OCCOCCc1c(Br)c(O)cc(O)c1-c1ccccc1 [Compound 110, 6-Bromo-5-[2-(2-hydroxyethoxy)ethyl]-4-phenylbenzene-1,3-diol] | ≤ 50 |
| COCOCCc1c(Br)c(O)cc(O)c1-c1ccccc1 [Compound 111, 6-Bromo-5-[2-(methoxymethoxy)ethyl]-4-phenylbenzene-1,3-diol] | ≤ 50 |
| Oc1cc(O)c(-c2ccccc2)c(C2OCCO2)c1Br [Compound 112, 6-Bromo-5-(1,3-dioxolan-2-yl)-4-phenylbenzene-1,3-diol] | ≤ 50 |
| CC(=O)CCc1c(Br)c(O)cc(O)c1-c1ccccc1 [Compound 114, 4-(2-Bromo-3,5-dihydroxy-6-phenylphenyl)butan-2-one] | ≤ 50 |
| CC(O)CCc1c(Br)c(O)cc(O)c1-c1ccccc1 (stereo not drawn) [Compound 115, 5-(3-Hydroxybutyl)-6-bromo-4-phenylbenzene-1,3-diol] | ≤ 50 |
| COCCc1c(Br)c(O)cc(O)c1-c1cccc(C(N)=O)c1 [Compound 117, 3-[5-Bromo-2,4-dihydroxy-6-(2-methoxyethyl)phenyl]benzamide] | ≤ 50 |
| COCCc1c(C(C)=O)c(O)cc(O)c1-c1cccc(C(=O)OC)c1 [Compound 119, Methyl 3-[5-acetyl-2,4-dihydroxy-6-(2-methoxyethyl)phenyl]benzoate] | ≤ 50 |
| COCCc1c(C(C)=O)c(O)cc(O)c1-c1cccc(-c2ccccc2)c1 [Compound 120, 1-[2,4-Dihydroxy-6-(2-methoxyethyl)-5-(3-phenylphenyl)phenyl]ethanone] | ≤ 50 |
| CCOc1cccc(-c2c(O)cc(O)c(C(C)=O)c2CCOC)c1 [Compound 121, 1-[2,4-Dihydroxy-5-(3-ethoxyphenyl)-6-(2-methoxyethyl)phenyl]ethanone] | ≤ 50 |
| CC(=O)c1c(O)cc(O)c(-c2ccccc2)c1CCCO [Compound 124, 1-[2,4-Dihydroxy-6-(3-hydroxypropyl)-5-phenylphenyl]ethanone] | ≤ 50 |
| COCCc1c(C(=O)C(F)(F)F)c(O)cc(O)c1-c1ccccc1 [Compound 125, 1-[2,4-Dihydroxy-6-(2-methoxyethyl)-5-phenylphenyl]-2,2,2-trifluoroethanone] | ≤ 50 |
| CCc1c(OC)cc(O)c(-c2ccccc2)c1CC(=O)OC [Compound 126, Methyl 6-ethyl-3-hydroxy-5-methoxy-2-phenylphenylacetate] | ≤ 50 |
| COCCc1c(C(=O)OC)c(O)cc(O)c1-c1ccccc1 [Compound 128, Methyl 2,4-dihydroxy-6-(2-methoxyethyl)-5-phenylbenzoate] | ≤ 50 |

| Compound | GI50 [µM] |
| --- | --- |
| COCCc1c(OC)c(O)cc(O)c1-c1ccccc1 [Compound 129, 6-Methoxy-5-(2-methoxyethyl)-4-phenylbenzene-1,3-diol] | ≤ 50 |
| CCc1c(O)cc(O)c(-c2cccc(C(=O)OC)c2)c1CCOC [Compound 131, Methyl 3-[5-ethyl-2,4-dihydroxy-6-(2-methoxyethyl)phenyl]benzoate] | ≤ 50 |
| CCc1c(O)cc(O)c(-c2cccc(-c3ccccc3)c2)c1CCOC [Compound 132, 6-Ethyl-5-(2-methoxyethyl)-4-(3-phenylphenyl)benzene-1,3-diol] | ≤ 50 |
| CCOc1cccc(-c2c(O)cc(O)c(CC)c2CCOC)c1 [Compound 133, 4-(3-Ethoxyphenyl)-6-ethyl-5-(2-methoxyethyl)benzene-1,3-diol] | ≤ 50 |
| COCCc1c(C(C)=O)c(O)cc(O)c1-c1cccc(OCc2ccccc2)c1 [Compound 135, 1-[2,4-Dihydroxy-5-(3-benzyloxyphenyl)-6-(2-methoxyethyl)phenyl]ethanone] | ≤ 50 |
| COCCN(C)C(=O)Cc1c(C(C)=O)c(O)cc(O)c1-c1cccc(OC)c1 [Compound 141, 2-[2-Acetyl-3,5-dihydroxy-6-(3-methoxyphenyl)phenyl]-N-(2-methoxyethyl)-N-methylacetamide] | ≤ 50 |
| CCc1c(O)cc(O)c(-c2cccc(OC)c2)c1CC(=O)OC [Compound 142, Methyl 2-ethyl-3,5-dihydroxy-6-(3-methoxyphenyl)phenylacetate] | ≤ 50 |
| C=CCOCCc1c(CC)c(O)cc(O)c1-c1ccccc1 [Compound 144, 5-(2-Allyloxyethyl)-6-ethyl-4-phenylbenzene-1,3-diol] | ≤ 50 |
| CCc1c(O)cc(O)c(-c2cccc(OC)c2)c1CC(=O)N(C)CCOC [Compound 150, 2-[2-Ethyl-3,5-dihydroxy-6-(3-methoxyphenyl)phenyl]-N-(2-methoxyethyl)-N-methylacetamide] | ≤ 50 |
| COCCc1c(-c2ccccc2)c(O)cc(O)c1C(C)C [Compound 151, 6-Isopropyl-5-(2-methoxyethyl)-4-phenylbenzene-1,3-diol] | ≤ 50 |
| COCCOCCc1cc(OS(N)(=O)=O)cc(O)c1-c1ccccc1 [Compound 152, 3-(2-Methoxyethoxy)ethyl-2-phenyl-5-(sulfamoyloxy)phenol] | ≤ 50 |
| CCc1c(O)cc(O)c(-c2cccc(CCC(C)=O)c2)c1CCOCCOC [Compound 153, 4-(3-{5-Ethyl-2,4-dihydroxy-6-[2-(2-methoxyethoxy)ethyl]phenyl}phenyl)butan-2-one] | ≤ 50 |
| CCc1c(O)cc(O)c(-c2cccc(CCC(C)O)c2)c1CCOCCOC (stereo not drawn) [Compound 154, 6-Ethyl-4-[3-(3-hydroxybutyl)phenyl]-5-[2-(2-methoxyethoxy)ethyl]benzene-1,3-diol] | ≤ 50 |
| CCc1c(O)cc(O)c(-c2ccccc2)c1CCOCC(N)=O [Compound 155, 2-[2-(2-Ethyl-3,5-dihydroxy-6-phenylphenyl)ethoxy]acetamide] | ≤ 50 |
| CCc1c(O)cc(O)c(-c2ccccc2)c1CCOCC(=O)N(C)C [Compound 157, 2-[2-(2-Ethyl-3,5-dihydroxy-6-phenylphenyl)ethoxy]-N,N-dimethylacetamide] | ≤ 50 |
| CCc1c(O)cc(O)c(-c2ccccc2)c1CCCOCC(N)=O [Compound 158, 2-[3-(2-Ethyl-3,5-dihydroxy-6-phenylphenyl)propoxy]acetamide] | ≤ 50 |
| CCc1c(O)cc(O)c(-c2ccccc2)c1CCCOCC(=O)N(C)C [Compound 160, 2-[3-(2-Ethyl-3,5-dihydroxy-6-phenylphenyl)propoxy]-N,N-dimethylacetamide] | ≤ 50 |
| CCc1c(O)cc(O)c(-c2ccccc2)c1CCCOCC(=O)NCCOC [Compound 168, 2-[3-(2-Ethyl-3,5-dihydroxy-6-phenylphenyl)propoxy]-N-(2-methoxyethyl)acetamide] | ≤ 50 |
| CCc1c(O)cc(O)c(-c2ccccc2)c1CCC(O)CC(O)CO (stereo not drawn) [Compound 169, 6-Ethyl-4-phenyl-5-(3,5,6-trihydroxyhexyl)benzene-1,3-diol] | ≤ 50 |
| CCc1c(O)cc(O)c(-c2ccccc2)c1CCOCCCOC [Compound 176, 6-Ethyl-5-[2-(3-methoxypropoxy)ethyl]-4-phenylbenzene-1,3-diol] | ≤ 50 |
| CCc1c(O)cc(O)c(-c2ccccc2)c1CC(O)CC(O)CO (stereo not drawn) [Compound 177, 6-Ethyl-4-phenyl-5-(2,4,5-trihydroxypentyl)benzene-1,3-diol] | ≤ 50 |
| CCc1c(O)cc(O)c(-c2ccccc2)c1CCOCC(O)COCCO (stereo not drawn) [Compound 179, 6-Ethyl-5-{2-[2-hydroxy-3-(2-hydroxyethoxy)propoxy]ethyl}-4-phenylbenzene-1,3-diol] | ≤ 50 |
